Results reported in ChEMBL document CHEMBL1126420, “Design and synthesis of novel ligands for the 5-HT3 and the 5-HT4 receptor” (Bioorg Med Chem Lett, 1992).

How the values were obtained:
[1] = molecular target: Serotonin 3 (5-HT3) receptor; test: Antagonistic activity against Serotonin 5-hydroxytryptamine 3 receptor of isolated guinea pig ileum (GPI); assay type: functional, tissue-based, Cavia porcellus
[2] = molecular target: T1, Serotonin 3 receptor (5HT3) (Mus musculus) (UniProt Q9JHJ5+P23979); test: Compound was evaluated for binding to Serotonin 5-hydroxytryptamine 3 receptor in N1E cells using [3H]- -Tropisetron as radioligand; assay type: cell-based
[3] = molecular target: Serotonin 3 (5-HT3) receptor; test: Evaluated for the antagonistic activity against 5-hydroxytryptamine 3 receptor in isolated perfused rabbit heart (RH); assay type: functional, Oryctolagus cuniculus
[4] = molecular target: Serotonin 3 (5-HT3) receptor; test: Evaluated for the antagonistic activity against 5-hydroxytryptamine 3 receptor in isolated rabbit vagus nerve (RVN); assay type: functional, tissue-based, Oryctolagus cuniculus
[5] = molecular target: 5-hydroxytryptamine receptor 4 (Cavia porcellus) (UniProt O70528); test: Agonistic activity against Serotonin 5-hydroxytryptamine 4 receptor in low frequency field stimulation of guinea-pig ileum (FSGPI).; assay type: functional, tissue-based
[6] = pKa value was determined; assay type: physicochemical
[7] = molecular target: 5-hydroxytryptamine receptor 4 (Cavia porcellus, UniProt O70528); test: Evaluated for the antagonistic activity against Serotonin 5-hydroxytryptamine 4 receptor in non-electrically stimulated guinea-pig ileum.; assay type: functional, tissue-based; conditions: read-out: pA2 (converted)
[8] = molecular target: T2, Serotonin 3 (5-HT3) receptor (Homo sapiens) (UniProt P46098+A5X5Y0+O95264+Q70Z44+Q8WXA8); test: Evaluated for the antagonistic activity against Serotonin 5-hydroxytryptamine 3 receptor in isolated guinea pig ileum (GPI); assay type: functional, tissue-based; conditions: Cavia porcellus, target entry is the homologue from another species
[9] = molecular target: T2, Serotonin 3 (5-HT3) receptor (Homo sapiens); test: (§1) Evaluated for the antagonistic activity against Serotonin 5-hydroxytryptamine 3 receptor in isolated perfused rabbit heart (RH); assay type: functional; conditions: Oryctolagus cuniculus; target entry is the homologue from another species
[10] = molecular target: T2, Serotonin 3 (5-HT3) receptor (Homo sapiens); test: Evaluated for the antagonistic activity against Serotonin 5-hydroxytryptamine 3 receptor in isolated rabbit vagus nerve (RVN); assay type: functional, tissue-based; conditions: Oryctolagus cuniculus, target entry is the homologue from another species
[11] = molecular target: 5-hydroxytryptamine receptor 4 (Cavia porcellus) (UniProt O70528); test: Agonistic activity against Serotonin 5-hydroxytryptamine 4 receptor in non-electrically stimulated guinea-pig ileum.; assay type: functional, tissue-based
Rattus norvegicus = species: Rattus norvegicus; test: Effective dose inhibited the Bezold-Jarisch reflex in rats was determined; assay type: functional
[12] = molecular target: 5-hydroxytryptamine receptor 4 (Cavia porcellus) (UniProt O70528); conditions: Ileum
Description: pD2 value in the non-electrically stimulated guinea pig ileum

[13] = molecular target: Serotonin 3 (5-HT3) receptor; test: as §1; assay type: functional, Oryctolagus cuniculus
[14] = molecular target: 5-hydroxytryptamine receptor 4 (Cavia porcellus) (UniProt O70528); test: Agonistic activity against Serotonin 5-HT4 receptor in low frequency field stimulation of guinea-pig ileum (FSGPI); assay type: functional, tissue-based
[15] = molecular target: 5-hydroxytryptamine receptor 4 (Cavia porcellus) (UniProt O70528); conditions: Ileum; remark: listed apart in the source
Description: Evaluated for the agonistic activity against 5-HT4 receptor in non-electrically stimulated guinea-pig ileum.

[16] = molecular target: 5-hydroxytryptamine receptor 4 (Cavia porcellus) (UniProt O70528); test: Evaluated for the agonistic activity against Serotonin 5-HT4 receptor in non-electrically stimulated guinea-pig ileum.; assay type: functional, tissue-based
[17] = molecular target: Serotonin 3 (5-HT3) receptor; test: Antagonistic activity against Serotonin 5-hydroxytryptamine 3 receptor in isolated rabbit vagus nerve (RVN); assay type: functional, tissue-based, Oryctolagus cuniculus
[18] = molecular target: T1, Serotonin 3 receptor (5HT3) (Mus musculus); test: Compound was evaluated for binding to 5-hydroxytryptamine 3 receptor in N1E cells using [3H]- -Tropisetron as radioligand; assay type: cell-based

Chain of 5-hydroxytryptamine receptor 4 (Cavia porcellus) (O70528 whole entry): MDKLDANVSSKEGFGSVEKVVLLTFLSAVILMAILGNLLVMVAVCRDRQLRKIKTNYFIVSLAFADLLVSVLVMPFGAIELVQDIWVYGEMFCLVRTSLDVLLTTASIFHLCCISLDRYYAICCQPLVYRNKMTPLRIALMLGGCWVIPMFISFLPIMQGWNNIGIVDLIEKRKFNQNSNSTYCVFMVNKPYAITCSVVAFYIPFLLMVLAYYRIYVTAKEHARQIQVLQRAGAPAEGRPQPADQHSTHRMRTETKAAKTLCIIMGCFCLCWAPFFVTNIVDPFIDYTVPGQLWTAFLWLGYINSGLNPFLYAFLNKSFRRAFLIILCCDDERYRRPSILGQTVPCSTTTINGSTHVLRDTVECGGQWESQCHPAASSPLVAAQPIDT
T1 sequence (P23979 whole entry, looked up, the tested form may be a part): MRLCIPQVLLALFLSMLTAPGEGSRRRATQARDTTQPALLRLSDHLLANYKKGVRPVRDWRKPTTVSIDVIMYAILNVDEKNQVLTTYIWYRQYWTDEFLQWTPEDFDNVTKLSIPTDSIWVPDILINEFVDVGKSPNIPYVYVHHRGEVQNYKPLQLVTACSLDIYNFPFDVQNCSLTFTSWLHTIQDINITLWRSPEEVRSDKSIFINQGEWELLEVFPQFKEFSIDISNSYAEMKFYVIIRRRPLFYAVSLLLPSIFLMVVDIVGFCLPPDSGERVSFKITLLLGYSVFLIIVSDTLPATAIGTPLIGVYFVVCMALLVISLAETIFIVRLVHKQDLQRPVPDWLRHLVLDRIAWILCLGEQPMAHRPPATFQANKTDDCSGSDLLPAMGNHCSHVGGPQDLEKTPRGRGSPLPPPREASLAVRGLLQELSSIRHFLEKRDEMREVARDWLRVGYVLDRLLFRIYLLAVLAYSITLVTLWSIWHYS
T1 sequence (Q9JHJ5 whole entry, looked up, the tested form may be a part): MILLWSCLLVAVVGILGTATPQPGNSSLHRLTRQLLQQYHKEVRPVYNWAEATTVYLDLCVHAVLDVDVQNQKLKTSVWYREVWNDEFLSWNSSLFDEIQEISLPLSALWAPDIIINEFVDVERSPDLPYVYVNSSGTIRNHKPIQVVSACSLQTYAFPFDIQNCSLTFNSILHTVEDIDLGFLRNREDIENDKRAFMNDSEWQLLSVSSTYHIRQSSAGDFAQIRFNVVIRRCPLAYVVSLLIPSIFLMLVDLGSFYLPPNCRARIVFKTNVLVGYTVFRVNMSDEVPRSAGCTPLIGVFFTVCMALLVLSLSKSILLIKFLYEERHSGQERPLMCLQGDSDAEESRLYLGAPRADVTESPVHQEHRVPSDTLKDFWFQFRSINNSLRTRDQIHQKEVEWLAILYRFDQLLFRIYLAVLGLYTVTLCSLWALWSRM
Chain of 5-hydroxytryptamine receptor 4 (O70528 whole entry): as the sequence (O70528 whole entry) above

## CN1C2CC(OC(=O)c3c[nH]c4ccccc34)CC1C1OC12 (configuration not stated)
[1]
  pA2: 8.8
[2]
  pKD: 9.2
[3]
  pA2: 11
[4]
  pA2: 10.6
[5]
  pD2: 0
[6]
  pKa: 6.64
[7]
  Kb: 501 nM

## NCCC1CCCc2ccc(O)cc21 (configuration not stated)
[8]
  pD2: 5.2
[9]
  pD2: 5.7
[10]
  pD2: 6

## COc1ccc2[nH]ccc2c1C(=O)NC1CN2CCC1CC2 (configuration not stated)
[1]
  pA2: 7.2
[5]
  pD2: 6.6
[11]
  pD2: 7.1

## CN1[C@@H]2CC[C@H]1C[C@@H](OC(=O)c1c[nH]c3ccccc13)C2 [TROPISETRON]
[2]
  pKD: 9.1
[6]
  pKa: 8.4
Rattus norvegicus
  ED50: 0.72 µg/kg
[7]
  Kb: 2000 nM
[12]
  pD2: 5.7

## COc1cc(N)c(Cl)cc1C(=O)N[C@H]1CCN2CCC[C@@H]1C2
[13]
  pA2: 8.6
[5]
  pD2: 7.1
[11]
  pD2: 5.7

## NCCc1c[nH]c2ccc(O)cc12
[14]
  pD2: 7
[15]
  pD2: 7.9

## COc1cc(N)c(Cl)cc1C(=O)NC1CN2CCC1CC2 (configuration not stated)
[5]
  pD2: 6.2
[11]
  pD2: 5.9

## O=C(CC1CC2CCC(C1)N2)c1c[nH]c2cc(O)ccc12 (configuration not stated)
[1]
  pA2: 6
[9]
  pD2: 6
[10]
  pD2: 7

## CCN(CC)CCOC(=O)c1cc(Cl)c(N)cc1OC
[16]
  pD2: 7

## Nc1c(Cl)cc(C(=O)NC2CN3CCC2CC3)c2nsnc12 (configuration not stated)
[1]
  pA2: 7.7
[17]
  pA2: 8.9
[5]
  pD2: 5.8
[11]
  pD2: 5.5

## Nc1c(Cl)cc(C(=O)NC2CCN3CCCC2C3)c2nsnc12 (configuration not stated)
[1]
  pA2: 6.8
[17]
  pA2: 7.7
[5]
  pD2: 7.2
[11]
  pD2: 6

## NCCc1ccnc2ccc(O)cc12
[8]
  pD2: 4.5
[10]
  pD2: 5.8

## Cc1[nH]c2ccc(O)cc2c1CCN
[8]
  pD2: 5.1
[9]
  pD2: 5.5
[10]
  pD2: 5.6

## Cc1nccn1CC1CCc2c(c3ccccc3n2C)C1=O (configuration not stated)
[18]
  pKD: 7.7
[5]
  pD2: 5.1

## N#Cc1[nH]c2ccc(O)cc2c1CCN
[8]
  pD2: 5.4
[9]
  pD2: 4
[10]
  pD2: 7.2

## CCN(CC)CCNC(=O)c1cc(Cl)c(N)cc1OC [METOCLOPRAMIDE]
[1]
  pA2: 5.2
[13]
  pA2: 7.1
[5]
  pD2: 5.5

## Nc1c(Cl)cc(C(=O)NC2CN3CCC2CC3)c2ncccc12 (configuration not stated)
[1]
  pA2: 7.9
[17]
  pA2: 9
[5]
  pD2: 7.2
[11]
  pD2: 6

## CCN(CC)CCN1CCc2cc(N)c(Cl)cc2C1=O
[14]
  pD2: 5.2
[16]
  pD2: 5.1

## CCN(CC)Cc1coc(-c2cc(Cl)c(N)cc2OC)n1
[14]
  pD2: 6.1
[16]
  pD2: 6

## Cc1[nH]c2ccc(O)cc2c1CC(=N)NCCCN1CCCC1=O
[14]
  pD2: 5.8

## Nc1c(Cl)cc(C(=O)NC2CCN3CCCC2C3)c2ncccc12 (configuration not stated)
[1]
  pA2: 6.7
[5]
  pD2: 7.5
[11]
  pD2: 7.1

## N/C(Cc1c[nH]c2ccc(O)cc12)=N\CCc1c[nH]c2ccc(O)cc12
[14]
  pD2: 6.3

## COc1cc(N)c(Cl)cc1C(=O)N[C@H]1CCN(CCCOc2ccc(F)cc2)C[C@H]1OC [CISAPRIDE]
[1]
  pA2: 7.2
[13]
  pA2: 7.1
[17]
  pA2: 6.5
[5]
  pD2: 6
